From the METLIN SMRT retention time set (Domingo-Almenara et al. 2019) come the findings set out here.

The nature of the series: gradient 5% acetonitrile 3 min, to 50% in 2 min, to 85% in 15 min, held 3 min, 100 µL/min. The note with it: column: Zorbax Extend-C18 2.1 x 50 mm; eluents: water / acetonitrile, 0.1% formic acid. The gist of the method:
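Values are retention times taken from adduct peaks that software picked and an analyst inspected. The pure standards were run as mixtures of ~100 molecules on HPLC linked to a quadrupole time-of-flight mass spectrometer, in positive and negative ionization mode. A Zorbax Extend-C18 column (2.1 × 50 mm, 1.8 μm) was used at 100 μL/min with water and acetonitrile, each including 0.1% formic acid.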
On to `Cc1c(C(=O)C(=O)Nc2cccc(F)c2)c2ccccc2n1C`, for which the RP-LC retention time worked out at 960 s.

As to `CCOc1ccccc1NC(=O)Cn1cnc2nc(N3CCCC(C(=O)NC)C3)sc2c1=O` (stereo not given), the RP-LC retention time amounted to 667 s.

`CCn1ccc2sc(C)c(C(=O)NCc3cccc(C)c3)c2c1=O` yielded an RP-LC retention time of 850 s. For `COCc1ncc(C)n1CC1CN(C(=O)c2cccn2C)C1` the value was 585 s; for `Cc1cccn2c(NCc3ccccc3)c(-c3ccccc3OC(=O)C(C)Cl)nc12` (stereo not given), 1210 s. For `COc1ccc(C2C(C(=O)NC(C)C)c3ccccc3C(=O)N2C)cc1` (stereo not given) the value was 730 s; for `COc1ncc(C(=O)NCc2ccc(N(C)C)cc2)cn1`, 564 s. For `Cc1ccc(C)c(NS(=O)(=O)c2cc(-c3[nH]ncc3C(=O)N3CCOCC3)oc2C)c1` the value was 701 s; for `CCN(CC)C(=O)c1ccc2c(c1)ncn2CCNC(=O)Nc1ccc(Br)cc1`, 644 s.

Molecule `O=C(c1noc2c1CCCC2)N1CCc2ccccc2C1` returned an RP-LC retention time of 923 s. For `CCCCS(=O)(=O)N1CCN(c2nc(N3CCOCC3)nc(-n3ccnc3)n2)CC1` the value was 604 s; for `COC(=O)c1ccc(C(=O)NCC2CCN(c3ncccn3)CC2)cc1`, 635 s. For `CCc1cc(=O)n(CC(=O)N2CCc3ccccc32)c(N2CCOCC2)n1` the value was 734 s; for `COc1ccc(-c2noc(C3CC(=O)N(c4ccc(F)cc4)C3)n2)cc1` (stereo not given), 912 s.

Turning to `Cc1cc(NC(=O)C2CCN(C(=O)c3cc(-c4ccco4)on3)CC2)no1`, the RP-LC retention time amounted to 712 s. For `CSc1ccc(CNC(=O)c2cn3cc(Cl)ccc3n2)cc1` the value was 895 s; for `Cc1ccc(F)cc1NC(=O)c1cnc(-c2ccc(F)cc2)nc1-c1ccncc1`, 1060 s. `COCCN1C(=O)[C@H]2CN(Cc3ccc(OC)cc3OC)C[C@H]2C1=O` showed an RP-LC retention time of 594 s. On to `O=C1Nc2ccccc2SC1C(=O)N1CCC(C(=O)N2CCN(c3ccccc3F)CC2)CC1` (stereo not given), for which the RP-LC retention time came out at 784 s. For `Cc1ccc(C)c(-c2csc(NC(=O)CCC(=O)O)n2)c1` the value was 781 s; for `Cc1[nH]nc(-c2c(C)sc(C)c2S(=O)(=O)Nc2cccc(Br)c2)c1C`, 1130 s; for `CC1(C(=O)NC2CCCCCC2)CN(S(C)(=O)=O)CC(=O)N1c1cccc(Cl)c1` (stereo not given), 882 s. For `Cc1ccc2cc(CCC(=O)NCCCN(C)C)c(=O)[nH]c2c1` the value was 577 s; for `COc1ccc(NCc2nnc3n2CCCCC3)cc1OC`, 559 s; for `COC(=O)c1ccccc1NC1=NS(=O)(=O)c2ccccc21`, 934 s. For `CCOc1ccc(CN2CCC3(CCC3O)CC2)cc1OCC` (stereo not given) the value was 598 s; for `CCN(c1ccccc1F)S(=O)(=O)c1cc2n(c1)CCCN(C)C2=O`, 780 s. In turn, `O=C(NCCc1csc(-c2ccccc2)n1)[C@H]1CCCN1S(=O)(=O)c1cccc(Cl)c1` had an RP-LC retention time of 994 s. For `CCN1CCN(C(=O)c2cc3n(n2)CC(C)(C(=O)NC2CCCCCC2)N(C)C3=O)CC1` (stereo not given) the value was 611 s; for `O=C(Cc1csc2nc(-c3ccccc3)cn12)Nc1ccc(F)cc1F`, 809 s; for `COC(=O)c1c(C)[nH]c(C(=O)N2CCC(CC(=O)NCc3ccc(N(C)C)cc3)CC2)c1C`, 595 s. As to `O=C(Nc1cnc(-c2ccccc2)nc1)c1ccccc1C(F)(F)F`, the RP-LC retention time was 970 s. Regarding `Cc1ccc(NC(=O)Cn2cccc2-c2nnc(C3CCC3)o2)cc1Cl`, the RP-LC retention time came out at 1010 s. As to `O=c1c(Cl)c(N2CCN(c3ccccn3)CC2)cnn1-c1nc2ccccc2s1`, the RP-LC retention time was determined as 639 s.

Molecule `COc1cccc(NC(=O)NCC(c2cccnc2)c2c[nH]c3ccccc23)c1` (stereo not given) returned an RP-LC retention time of 662 s.

`CCn1ccc(C(=O)Nc2cccc(OCc3nnc(-c4ccc(Cl)cc4)o3)c2)n1`: the RP-LC retention time was found to be 961 s. For `CCn1cc(S(=O)(=O)N2CCC(c3noc(COCCOC)n3)CC2)cn1` the value was 704 s; for `COc1ccc(-n2cc(C(=O)OCCc3ccccn3)c3cc(OC)c(OC)cc3c2=O)cc1`, 681 s. The molecule `COc1ccc(CNc2c(-c3nc(C4CC4)no3)cnc3nc(C)ccc23)cc1OC` yielded an RP-LC retention time of 683 s.

`CCC(=O)Nc1ccc(-n2cnc(C(=O)NCC3CCCO3)c2)nc1` (stereo not given): the RP-LC retention time amounted to 614 s.

`COc1ccccc1NC(=O)c1ccc2nc(-c3ccccc3)cn2c1` gave an RP-LC retention time of 725 s. For `Nc1cc(C2CCN(C(=O)/C=C/c3ccccc3Cl)CC2)no1` the value was 747 s. The molecule `COC(=O)c1ccc(NC(=O)c2ccc(-n3ccnc3C)nn2)cc1` registered an RP-LC retention time of 561 s. For `CCCC(NC(=O)Cc1ccc(OC)cc1Cl)C(=O)Nc1nc2ccccc2[nH]1` (stereo not given) the value was 730 s; for `COc1ccccc1-c1noc(C2CCCN2C(=O)Nc2ccc(F)c(Cl)c2)n1` (stereo not given), 942 s. `O=C(Cn1cccc(-c2nc(-c3ccccc3)no2)c1=O)Nc1cc(C(F)(F)F)ccc1Cl` showed an RP-LC retention time of 1040 s. For `O=C1/C(=C/c2cc(Br)cc3c2OCOC3)Oc2cc(OC(=O)C3CC3)ccc21` the value was 1200 s. For `CCNC(=O)NC1CCN(c2nc3cccnc3n(Cc3ccc(C)cc3)c2=O)CC1` the value was 1010 s. For `COc1ccc(-c2nc(N(C)Cc3ccco3)c3ccccc3n2)cc1` the value was 765 s; for `Cn1cc(C(=O)NCc2cc(F)cc(F)c2)c(S(=O)(=O)N2CCSCC2)n1`, 1010 s; for `CCCN1CCN(C(=O)c2csc(N3CCN(c4ccc(OC)cc4)CC3)n2)CC1`, 626 s. The molecule `Cc1cc(N2CCOCC2)n2nc(CN3CCN(c4cc(Cl)ccc4C)CC3)nc2n1` registered an RP-LC retention time of 668 s. For `CC(C)NC(=O)c1ccc(OCC2CCCN2C(=O)c2ccc(F)c(F)c2)cc1` (stereo not given) the value was 862 s; for `COc1ccc(CC(=O)NC2CCN(c3nnc4ccccn34)CC2)cc1`, 626 s. `O=c1ccn(-c2ccccc2)nc1-c1nc(-c2ccncc2)no1` gave an RP-LC retention time of 649 s.

`Cc1ccc(NC(=O)Cn2c(-c3cnccn3)nc(C)c(C)c2=O)cc1Cl` showed an RP-LC retention time of 842 s. For `CCc1cccc(N2C(=O)CN(S(C)(=O)=O)CC2(C)C(=O)NCc2ccc(Cl)cc2)c1` (stereo not given) the value was 903 s; for `O=C(Cn1c(C(=O)c2cccc(F)c2)nc2ccccc21)NCC1CCCO1` (stereo not given), 805 s.

`Cc1cc(F)ccc1NS(=O)(=O)c1cc2n(c1)CCN(C(C)C)C2=O` registered an RP-LC retention time of 773 s. For `O=S(=O)(NCCN1CCN(c2ccccc2F)CC1)c1cc(F)ccc1F` the value was 594 s. For `CCCOc1nc2ccccc2nc1N1CCCC(C(=O)NCC2CCCO2)C1` (stereo not given) the value was 1010 s; for `CCn1c(=O)c2c(cc(C)n2C)n(CC(=O)Nc2cc(Cl)ccc2OC)c1=O`, 888 s.

As to `COc1ccccc1-c1nnc(-c2cccc(S(=O)(=O)N3CCOCC3)c2)o1`, the RP-LC retention time is 802 s. For `Cc1ccc(Nc2c(-c3ccccc3)nc3cc(C)ccn23)cc1` the value was 741 s. For `CCc1nn2c(CNS(=O)(=O)c3ccc(C)cc3)c(-c3ccccc3)nc2s1` the value was 973 s; for `Cc1nc(CC(=O)Nc2ccc(F)c(F)c2)cs1`, 754 s; for `O=C(CSc1ccc(N2CCCC(C(=O)NC3CC3)C2)nn1)Nc1ccc(F)c(F)c1` (stereo not given), 680 s.

In turn, `O=C(CSc1ccc(S(=O)(=O)C2CCCCC2)nn1)NCc1cc(F)cc(F)c1` displayed an RP-LC retention time of 833 s. Molecule `CSc1cccc(NC(=O)N2CCc3nc(-c4ccccc4)ncc3C2)c1` showed an RP-LC retention time of 955 s.

In the case of `CC1(C(=O)NCc2ccccc2)CCCN(C(=O)NCc2ccccc2)C1` (stereo not given), the RP-LC retention time stood at 810 s.

For `CC(=O)c1ccc(NC(=O)Cn2c(-c3ccc(Cl)cc3)nc(C)cc2=O)cc1`, the RP-LC retention time came out at 1040 s. For `Cn1c(=O)c(NCc2cccc(C(F)(F)F)c2)nc2ccncc21` the value was 658 s. For `O=C(NCCc1ccccc1)N1[C@H]2CC[C@@H]1c1cncnc1C2` the value was 642 s; for `COc1ccc(NS(=O)(=O)c2ccc3c(c2)-c2oncc2CO3)c(OC)c1`, 852 s. In turn, `CSc1ccc(-c2nc3c(C)cccn3c2Nc2ccccc2C)cc1` returned an RP-LC retention time of 810 s. For `Cc1ccc(S(=O)(=O)N2C[C@@H]3C[C@H](NC(=O)c4ccccc4)[C@H]2C3)cc1Cl` the value was 969 s; for `Cc1cc(C)c2c(N3CCSCC3)nc(C(=O)NC(C)c3ccccn3)nc2n1` (stereo not given), 618 s; for `NC(=O)C1CCN(C2CC(=O)N(c3ccc(Oc4ccccc4)cc3)C2=O)CC1` (stereo not given), 662 s. For `CCCN1C(=O)CCc2c(C)nc(-c3ccc(C)cc3)nc21` the value was 1150 s; for `CCN(CC)C(=O)Cn1ccc(NC(C)=O)nc1=O`, 602 s.
